The record followed here is patent publication US9475784B2, “4,6-diarylaminothiazines as BACE1 inhibitors and their use for the reduction of beta-amyloid production” (BRISTOL-MYERS SQUIBB COMPANY, priority 2012, dated 2016).

The assay has as its system Aβ42 production in H4 cells stably transfected with APP751 containing the Swedish mutation (H4 APP751 SWE clone 8.20). Description: Cellular assay for inhibition of Aβ1-42 production (H4 APP751 SWE clone 8.20). The format is cell-based. The conditions noted are these: H4 APP751 SWE clone 8.20 cells, 19 h incubation. As to the method:
Cellular Assays for Inhibition of Aβ1-40 and Aβ1-42 Production
H4 cells stably transfected with APP751 containing the Swedish mutation (H4 APP751 SWE clone 8.20, developed at BMS) were maintained in log phase through twice weekly passage at a 1:20 split. […] Following incubation for 19 h in 5% CO2 at 37° C., plates were briefly centrifuged (1000 rpm, 5 min). A 10 μl aliquot from each well was transferred to a second assay plate (Costar 3709) for Aβ40 measurements. Antibody cocktails were freshly prepared by dilution into 40 mM Tris-HCl (pH 7.4) with 0.2% BSA and added to assay plates. For Aβ42 measurements, antibodies specific for the Aβ42 neoepitope (565, developed at BMS; conjugated to the Wallac reagent (Perkin Elmer)) and the N-terminal sequence of Aβ peptide (26D6, developed at SIBIA; conjugated to APC (Perkin Elmer)) were mixed and 20 μl of the mixture was added to each well of the incubated cell plate yielding a final concentration of 0.8 ng/well 565 and 75 ng/well 26D6. For the Aβ40 measurements, antibodies specific for the Aβ40 neoepitope (TSD, developed at BMS; conjugated to the Wallac reagent (Perkin Elmer)) and 26D6 as described above were mixed and 20 μl of the mixture was added to the 10 μl aliquots which had been removed previously from the cell plate yielding a final concentration of 1.6 ng/well TSD and 17.5 ng/well 26D6. Assay plates containing antibodies were sealed with aluminum foil and incubated overnight at 4° C. Signal was determined using a Viewlux counter (Perkin Elmer) and IC50 values determined using curve fitting in CurveMaster (Excel Fit based).

[1] abbreviates: Table 5B, 6-heterocyclic thiazine examples.
The mark [2] stands for this setting: Table 5A, 6-alkyl and 6-substituted phenyl thiazine examples.

pIC50: −log10 of the molar value. Where a name gives a salt, the structure may show the parent alone. Some results are limits rather than exact numbers.

As a reminder, the pIC50 is −log10 of the IC50, conventionally taken in molar units. A high value points to a low IC50. Turning to `Cc1n[nH]c(C)c1[C@@H]1C[C@@H](c2cccc(-c3cncnc3)c2)N=C(N)S1` (racemic) [Example 18, (±)-6-(3,5-dimethyl-1H-pyrazol-4-yl)-4-(3-(pyrimidin-5-yl)phenyl)-5,6-dihydro-4H-1,3-thiazin-2-amine•TFA], under setting [1], the pIC50 was 5.15.
Same read-out and setting: for `Cc1nc([C@@H]2C[C@@](C)(c3cc(-c4cncnc4)c(F)cc3F)N=C(N)S2)c(C)o1` [Example 41, (4S,6S)-4-(2,4-difluoro-5-(pyrimidin-5-yl)phenyl)-6-(2,5-dimethyloxazol-4-yl)-4-methyl-5,6-dihydro-4H-1,3-thiazin-2-amine] the value was 6.63; for `Cc1nc(C)c([C@@H]2C[C@@](C)(c3cc(-c4cncnc4)c(F)cc3F)N=C(N)S2)s1` [Example 43, (4S,6S)-4-(2,4-difluoro-5-(pyrimidin-5-yl)phenyl)-6-(2,4-dimethylthiazol-5-yl)-4-methyl-5,6-dihydro-4H-1,3-thiazin-2-amine], 6.68.
In turn, `COc1ccccc1[C@@H]1C[C@@H](c2cccc(-c3cncnc3)c2)N=C(N)S1` (racemic) [Example 11, (±)-6-(2-methoxyphenyl)-4-(3-(pyrimidin-5-yl)phenyl)-5,6-dihydro-4H-1,3-thiazin-2-amine•TFA] gave a pIC50 under setting [2] of 5.62.
On the same count and under the same terms, for `COc1ccc([C@@H]2C[C@@H](c3cc(-c4cncnc4)ccc3F)N=C(N)S2)cc1OC` (single isomer, unassigned) [Example 8A] the value was 6.34; for `COc1ccc([C@@H]2C[C@@H](c3cccc(-c4cncnc4)c3)N=C(N)S2)cc1` (racemic) [Example 13, (±)-6-(4-methoxyphenyl)-4-(3-(pyrimidin-5-yl)phenyl)-5,6-dihydro-4H-1,3-thiazin-2-amine], 5.43.
`Cc1noc(C)c1[C@@H]1C[C@@H](c2cc(NC(=O)c3ccc(Br)cn3)ccc2F)N=C(N)S1` (racemic) [Example 37, N-(3-((±)-2-amino-6-(3,5-dimethylisoxazol-4-yl)-5,6-dihydro-4H-1,3-thiazin-4-yl)-4-fluorophenyl)-5-bromopicolinamide]: under setting [1], the pIC50 is 7.66.
On the same count and under the same terms, then `Cc1noc(C)c1[C@@H]1C[C@@H](c2cc(NC(=O)c3ccc(Cl)cn3)ccc2F)N=C(N)S1` (racemic) [Example 38, N-(3-((±)-2-amino-6-(3,5-dimethylisoxazol-4-yl)-5,6-dihydro-4H-1,3-thiazin-4-yl)-4-fluorophenyl)-5-chloropicolinamide•TFA], with 7.96; and `Cc1noc(C)c1[C@@H]1C[C@@](C)(c2cc(F)c(F)c(F)c2)N=C(N)S1` [Example 50, (4S,6S)-6-(3,5-dimethylisoxazol-4-yl)-4-methyl-4-(3,4,5-trifluorophenyl)-5,6-dihydro-4H-1,3-thiazin-2-amine], with 6.08.
On the same count and under the same terms, for `C[C@@]1(c2ccc(F)cc2F)C[C@@H](c2cncnc2)SC(N)=N1` [Example 62, (4S,6S)-4-(2,4-difluorophenyl)-4-methyl-6-(pyrimidin-5-yl)-5,6-dihydro-4H-1,3-thiazin-2-amine] the value was 6.51; for `Cc1nn(C)cc1[C@@H]1C[C@@H](c2cccc(-c3cncnc3)c2)N=C(N)S1` (racemic) [Example 26, (±)-6-(1,3-dimethyl-1H-pyrazol-4-yl)-4-(3-(pyrimidin-5-yl)phenyl)-5,6-dihydro-4H-1,3-thiazin-2-amine•TFA], 5.60.
Consider `NC1=N[C@H](c2cccc(-c3cncnc3)c2)C[C@@H](c2ccc(OC(F)(F)F)cc2)S1` (racemic) [Example 9, (±)-4-(3-(pyrimidin-5-yl)phenyl)-6-(4-(trifluoromethoxy)phenyl)-5,6-dihydro-4H-1,3-thiazin-2-amine], for which the pIC50 under setting [2] is 5.05.
Take `COc1ccc([C@@H]2C[C@@H](c3cc(-c4cncnc4)ccc3F)N=C(N)S2)cc1OC` (racemic) [Example 8, (±)-6-(3,4-dimethoxyphenyl)-4-(2-fluoro-5-(pyrimidin-5-yl)phenyl)-5,6-dihydro-4H-1,3-thiazin-2-amine]: the pIC50 under setting [2] was 5.72.
With `Cc1nn(C)c(C)c1[C@@H]1C[C@@H](c2cccc(-c3cncnc3)c2)N=C(N)S1` (racemic) [Example 28, (±)-4-(3-(pyrimidin-5-yl)phenyl)-6-(1,3,5-trimethyl-1H-pyrazol-4-yl)-5,6-dihydro-4H-1,3-thiazin-2-amine•TFA], under setting [1], the pIC50 was below 4.52.
In turn, `COc1ccc([C@@H]2C[C@@H](c3cccc(-c4cncnc4)c3)N=C(N)S2)cc1OC` (racemic) [Example 3, (±)-6-(3,4-dimethoxyphenyl)-4-(3-(pyrimidin-5-yl)phenyl)-5,6-dihydro-4H-1,3-thiazin-2-amine] showed a pIC50 under setting [2] of 5.96.
As to `Cc1noc(C)c1[C@@H]1C[C@@](C)(c2ccc(F)cc2F)N=C(N)S1` [Example 45, (4S,6S)-4-(2,4-difluorophenyl)-6-(3,5-dimethylisoxazol-4-yl)-4-methyl-5,6-dihydro-4H-1,3-thiazin-2-amine], the pIC50 under setting [1] is 6.82.
The same measure, in the same setting: then `Cc1noc(C)c1[C@@H]1C[C@@H](c2cc(NC(=O)c3ccc(Cl)cn3)ccc2F)N=C(N)S1` (single isomer, unassigned) [Example 38A], with 8.30; and `CC#Cc1cncc(-c2csc([C@@H]3C[C@@H](c4c(C)noc4C)SC(N)=N3)c2)c1` (racemic) [Example 36, (±)-6-(3,5-dimethylisoxazol-4-yl)-4-(4-(5-(prop-1-ynyl)pyridin-3-yl)thiophen-2-yl)-5,6-dihydro-4H-1,3-thiazin-2-amine], with 7.22.
The compound `Cc1nc(C)c([C@@H]2C[C@@](C)(c3cc(-c4cncnc4)c(F)cc3F)N=C(N)S2)o1` [Example 42, (4S,6S)-4-(2,4-difluoro-5-(pyrimidin-5-yl)phenyl)-6-(2,4-dimethyloxazol-5-yl)-4-methyl-5,6-dihydro-4H-1,3-thiazin-2-amine] gave a negative logarithm of the IC50 (pIC50) under setting [1] of 6.97.
As to `COc1ccc([C@@H]2C[C@@H](c3cccc(-c4cncnc4)c3)N=C(N)S2)cc1OC` (single isomer, unassigned) [Example 3A], under setting [2], the pIC50 was 5.96.
For `Cc1noc(C)c1[C@@H]1C[C@@](C)(c2cc(-c3cccnc3C#N)c(F)cc2F)N=C(N)S1` [Example 55, 3-(5-((4S,6S)-2-amino-6-(3,5-dimethylisoxazol-4-yl)-4-methyl-5,6-dihydro-4H-1,3-thiazin-4-yl)-2,4-difluorophenyl)picolinonitrile], the negative logarithm of the IC50 (pIC50) under setting [1] is 7.06.
The same measure, in the same setting: for `Cc1oncc1[C@]1(C)C[C@@H](c2cc(-c3cncnc3)c(F)cc2F)N=C(N)S1` (racemic) [Example 33, (±)-4-(2,4-difluoro-5-(pyrimidin-5-yl)phenyl)-6-methyl-6-(5-methylisoxazol-4-yl)-5,6-dihydro-4H-1,3-thiazin-2-amine] the value was 6.74.
The same measure, in the same setting: then `CC#Cc1cncc(-c2cc(Cl)c([C@]3(C)C[C@@H](c4c(C)noc4C)SC(N)=N3)s2)c1` [Example 44, (4S,6S)-4-(3-chloro-5-(5-(prop-1-ynyl)pyridin-3-yl)thiophen-2-yl)-6-(3,5-dimethylisoxazol-4-yl)-4-methyl-5,6-dihydro-4H-1,3-thiazin-2-amine], with 7.52; and `COc1ncc(-c2cc([C@]3(C)C[C@@H](c4c(C)noc4C)SC(N)=N3)c(F)cc2F)cc1Cl` [Example 57, (4S,6S)-4-(5-(5-chloro-6-methoxypyridin-3-yl)-2,4-difluorophenyl)-6-(3,5-dimethylisoxazol-4-yl)-4-methyl-5,6-dihydro-4H-1,3-thiazin-2-amine], with 6.42.
